Laboratory results: ChEMBL document CHEMBL5257097, “An Isomer of Galidesivir That Potently Inhibits Influenza Viruses and Members of the Bunyavirales Order” (ACS Med Chem Lett, 2023)

Tests used:
[1] = (§1) Selectivity index, ratio of CC50 for cytotoxicity against African green monkey Vero 76 cells infected with MERS-CoV assessed as reduction in cell viability by visual analysis to EC50 for antiviral activity against MERS-CoV infected in African green monkey Vero 76 cells assessed as reduction in virus-induced cytopathic effect by visual analysis; type: toxicity, cell-based; conditions: read-out: Ratio CC50/EC50
[2] = test system: Influenza A virus; experiment: Antiviral activity against Influenza A virus H1N1 infected in dog MDCK cells assessed as inhibition of viral replication measured after 15 to 30 mins by visual analysis; type: functional, organism-based
[3] = test system: Influenza A virus; experiment: Antiviral activity against Influenza A virus H3N2 infected in dog MDCK cells assessed as inhibition of viral replication measured after 15 to 30 mins by neutral red dye based analysis; type: functional, organism-based
[4] = test system: Influenza A virus; experiment: Antiviral activity against Influenza A virus H7N9 infected in dog MDCK cells assessed as inhibition of viral replication measured after 15 to 30 mins by visual analysis; type: functional, organism-based
[5] = Cytotoxicity against dog MDCK cells infected with Influenza A virus H3N2 assessed as reduction in cell viability by neutral red dye based analysis; type: toxicity, Canis lupus familiaris
[6] = Cytotoxicity against dog MDCK cells infected with Influenza A virus H3N2 assessed as reduction in cell viability by visual analysis; type: toxicity, cell-based, Canis lupus familiaris
[7] = Cytotoxicity against dog MDCK cells infected with Influenza A virus H7N9 assessed as reduction in cell viability by neutral red dye based analysis; type: toxicity, Canis lupus familiaris
[8] = Cytotoxicity against dog MDCK cells infected with Influenza B virus assessed as reduction in cell viability by visual analysis; type: toxicity, cell-based, Canis lupus familiaris
[9] = as §1, with “dog MDCK” for “African green monkey Vero 76”, “Influenza A virus H1N1” for “MERS-CoV”, “inhibition of viral replication” for “reduction in virus-induced cytopathic effect”; type: toxicity, cell-based; conditions: read-out: Ratio CC50/EC50
[10] = (§2) Selectivity index, ratio of CC50 for cytotoxicity against dog MDCK cells infected with Influenza A virus H3N2 assessed as reduction in cell viability by neutral red dye based analysis to EC50 for antiviral activity against Influenza A virus H3N2 infected in dog MDCK cells assessed as inhibition of viral replication by neutral red dye based analysis; type: toxicity; conditions: read-out: Ratio CC50/EC50
[11] = as §2, with “H7N9” for “H3N2”, “visual” for “neutral red dye based”; type: toxicity, cell-based; conditions: read-out: Ratio CC50/EC50
[12] = as §2, with “H7N9” for “H3N2”; type: toxicity; conditions: read-out: Ratio CC50/EC50
[13] = as §2, with “B” for “A”, “virus” for “virus H3N2”, “visual” for “neutral red dye based”; type: toxicity, cell-based; conditions: read-out: Ratio CC50/EC50
[14] = (§3) Selectivity index, ratio of CC50 for cytotoxicity against dog MDCK cells infected with Influenza B virus assessed as reduction in cell viability by neutral dye based analysis to EC50 for antiviral activity against Influenza B virus infected in dog MDCK cells assessed as inhibition of viral replication by neutral red dye based analysis; type: toxicity; conditions: read-out: Ratio CC50/EC50
[15] = test system: Influenza B virus; experiment: Antiviral activity against Influenza B virus infected in dog MDCK cells assessed as reduction in virus yield measured after 3 days by visual analysis; type: functional; conditions: 72 h, time 3 day
[16] = as §3, with “visual” for “neutral dye based”, “EC90” for “EC50”, “reduction in” for “inhibition of”, “yield” for “replication”, “visual” for “neutral red dye based”; type: toxicity, cell-based
[17] = test system: Junin virus; experiment: Antiviral activity against Junin virus infected in African green monkey Vero E6 cells assessed as inhibition of viral replication by neutral red dye based analysis; type: functional, organism-based; conditions: Mammarenavirus juninense, Vero C1008
[18] = test system: Oropouche virus; experiment: Antiviral activity against Oropouche virus infected in African green monkey Vero E6 cells assessed as inhibition of viral replication by visual analysis; type: functional, organism-based; conditions: Vero C1008
[19] = test system: Oropouche virus; experiment: Antiviral activity against Oro-pouche virus infected in African green monkey Vero E6 cells assessed as inhibition of viral replication by neutral red dye based analysis; type: functional, organism-based; conditions: Vero C1008
[20] = test system: Punta Toro virus; experiment: Antiviral activity against Punta Toro virus infected in African green monkey Vero 76 cells assessed as inhibition of viral replication by neutral red dye based analysis; type: functional, organism-based
[21] = test system: Heartland virus; experiment: Antiviral activity against Heartland virus infected in African green monkey Vero E6 cells assessed as reduction in viral yield measured for 3 days; type: functional; conditions: Vero C1008, 72 h, time 3 day
[22] = test system: Mammarenavirus choriomeningitidis; experiment: Antiviral activity against Lymphocytic choriomeningitis virus infected in African green monkey Vero E6 cells assessed as reduction in viral yield measured for 3 days; type: functional; conditions: Vero C1008, 72 h, time 3 day
[23] = test system: Orthohantavirus maporalense; experiment: Antiviral activity against Maporal virus infected in African green monkey Vero E6 cells assessed as reduction in viral yield measured for 3 days; type: functional; conditions: Vero C1008, 72 h, time 3 day
[24] = test system: Severe fever with thrombocytopenia syndrome virus; experiment: Antiviral activity against Severe fever with thrombocytopenia syndrome virus infected in African green monkey Vero E6 cells assessed as reduction in viral yield measured for 3 days; type: functional; conditions: Vero C1008, 72 h, time 3 day
[25] = Cytotoxicity against African green monkey Vero E6 cells infected with JUNV assessed as reduction in cell viability by neutral red dye based analysis; type: toxicity, Vero C1008; conditions: chlorocebus sabaeus
[26] = Cytotoxicity against African green monkey Vero E6 cells infected with Lymphocytic choriomeningitis virus assessed as reduction in cell viability; type: toxicity, cell-based, Vero C1008; conditions: chlorocebus sabaeus
[27] = Cytotoxicity against African green monkey Vero 76 cells infected with Punta Toro virus assessed as reduction in cell viability by neutral red dye based analysis; type: toxicity; conditions: chlorocebus sabaeus
[28] = Cytotoxicity against African green monkey Vero E6 cells infected with Severe fever with thrombocytopenia syndrome virus assessed as reduction in cell viability; type: toxicity, cell-based, Vero C1008; conditions: chlorocebus sabaeus
[29] = Cytotoxicity against African green monkey Vero cells infected with Tacaribe virus assessed as reduction in cell viability by neutral red dye based analysis; type: toxicity; conditions: chlorocebus sabaeus
[30] = (§4) Selectivity index, ratio of CC50 for cytotoxicity against African green monkey Vero E6 cells infected with Maporal virus assessed as reduction in cell viability to EC90 for antiviral activity against Maporal virus infected in African green monkey Vero E6 cells assessed as reduction in viral yield; type: toxicity, cell-based, Vero C1008
[31] = as §4, with “Oropouche” for “Maporal”, “viability by visual analysis” for “viability”, “EC50” for “EC90”, “replication by visual analysis” for “yield”; type: toxicity, cell-based, Vero C1008; conditions: read-out: Ratio CC50/EC50
[32] = as §4, with “Severe fever with thrombocytopenia syndrome” for “Maporal”, “replication” for “yield”; type: toxicity, cell-based, Vero C1008
[33] = Selectivity index, ratio of CC50 for cytotoxicity against African green monkey Vero cells infected with Tacaribe virus assessed as reduction in cell viability by neutral red dye based analysis to EC50 for antiviral activity against Tacaribe virus infected in African green monkey Vero cells assessed as reduction in viral replication by neutral red dye based analysis; type: toxicity; conditions: read-out: Ratio CC50/EC50
[34] = Toxicity in BALB/c mouse infected with influenza A/Ca/04/09 (H1N1) assessed as mortality at 100 mg/kg, ip measured every day for 6 days; type: organism-based; conditions: in vivo, time 6 day, read-out: Activity
[35] = Toxicity in BALB/c mouse infected with influenza A/Ca/04/09 (H1N1) assessed as mortality at 300 mg/kg, ip measured every day for 6 days; type: organism-based; conditions: in vivo, time 6 day, read-out: Activity
[36] = test system: Influenza A virus; experiment: Antiviral activity against Influenza A virus infected in dog MDCK cells assessed as reduction in viral cytopathic effect; type: functional, organism-based
[37] = test system: Measles morbillivirus; experiment: Antiviral activity against Measles virus infected in African green monkey Vero cells assessed as reduction in viral cytopathic effect; type: functional, organism-based
[38] = test system: dengue virus type 2; experiment: Antiviral activity against DENV-2 infected in African green monkey Vero cells assessed as reduction in virus-induced cytopathic effect measured after 15 to 30 mins by neutral red based analysis; type: functional, organism-based
[39] = Cytotoxicity against African green monkey Vero cells infected with DENV-2 assessed as reduction in cell viability by neutral red dye based assay; type: toxicity; conditions: chlorocebus sabaeus
[40] = as §1, with “Vero” for “Vero 76”, “with DENV-2” for “with MERS-CoV”, “against DENV-2” for “against MERS-CoV”, “in human Huh-7” for “in African green monkey Vero 76”; type: toxicity, cell-based; conditions: read-out: Ratio CC50/EC50

Compound `Nc1ncnn2c([C@@H]3N[C@H](CO)[C@@H](O)[C@H]3O)ccc12` has a selectivity ratio [1] of 31, an EC50 [2] of 320 nM and an EC50 [3] of 310 nM. For the same compound, the EC50 [4] was 420 nM, the CC50 [5] was 10000 nM and the CC50 [6] was 12000 nM. It also gave a CC50 [7] of 30000 nM, a CC50 [8] of 12000 nM and a selectivity ratio [9] of 41. The selectivity ratio [10] was 44, the selectivity ratio [11] was 76 and the selectivity ratio [12] was 77. It also gave a selectivity ratio [13] of 38, a selectivity ratio [14] of 38 and an EC90 [15] of 300 nM. It also gave a selectivity ratio [16] of 50, an EC50 [17] of 280 nM and an EC50 [18] of 390 nM. For the same compound, the EC50 [19] was 200 nM, the EC50 [20] was 270 nM and the EC90 [21] was 130 nM. For the same compound, the EC90 [22] was 150 nM, the EC90 [23] was 860 nM and the EC90 [24] was 220 nM. For the same compound, the CC50 [25] was 9600 nM, the CC50 [26] was 12000 nM and the CC50 [27] was 10000 nM. For the same compound, the CC50 [28] was 11000 nM, the CC50 [29] was 6600 nM and the selectivity ratio [30] was 15. It also gave a selectivity ratio [31] of 62, a selectivity ratio [32] of 49 and a selectivity ratio [33] of 20. The mortality at 144 h [34] was 72% and the mortality at 144 h [35] was 100%.
For `Nc1ncnc2c([C@@H]3N[C@H](CO)[C@@H](O)[C@H]3O)c[nH]c12` [GALIDESIVIR], the EC50 [36] was 1000 nM, the EC50 [37] was 1800 nM and the EC50 [38] was 15000 nM. For the same compound, the CC50 [39] was over 100000 nM and the selectivity ratio [40] was over 24.
